Among the test systems are CCRF-CEM leukemia; UACC-257 melanoma; IGROV1 ovarian; TK-10 renal; OVCAR-4 ovarian; MDA-N; BT-549 breast; MALME-3M melanoma; HCC-2998 colon; HL-60(TB) leukemia; HS 578T breast; UACC-62 melanoma; SN12C renal; HCT-116 colon; SK-MEL-5 melanoma; COLO 205 colon; KM12 colon; OVCAR-3 ovarian; NCI-H460 lung; SW-620 colon.
Experiment in all cases: DTP human tumour cell line panel, 48 h

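1) Cells in 96-well plates. 2) Compound, 48 h, 5 concentrations. 3) Linear interpolation between surrounding doses. 4) Unreached endpoint = highest concentration. TGI denotes the concentration required for complete inhibition of growth.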

Turning to `O=C(NNC1=NCCCN1)c1ccco1`, the total growth inhibition concentration (TGI) in the test with CCRF-CEM leukemia, with UACC-257 melanoma, in the test with IGROV1 ovarian, in the test with TK-10 renal, with OVCAR-4 ovarian and in the test on MDA-N was over 100 µM throughout. Besides, the total growth inhibition concentration (TGI) in the test with BT-549 breast, in the test on MALME-3M melanoma, in the test with HCC-2998 colon, with HL-60(TB) leukemia, in the test on HS 578T breast and in the test on UACC-62 melanoma was over 100 µM throughout. Also, the concentration for total growth inhibition (TGI) with SN12C renal, in the test on HCT-116 colon, in the test with SK-MEL-5 melanoma, with COLO 205 colon, in the test with KM12 colon and in the test on OVCAR-3 ovarian was over 100 µM throughout. The TGI in the test with NCI-H460 lung and in the test on SW-620 colon was over 100 µM each time.
Take `COc1ccc2c(=O)cc(-c3ccc(OC)c(OC)c3OC)oc2c1`: the TGI – broadly, the concentration giving total growth inhibition – with CCRF-CEM leukemia was over 31.6 µM; with UACC-257 melanoma, over 100 µM; in the test on IGROV1 ovarian, over 100 µM; with TK-10 renal, over 100 µM; in the test on OVCAR-4 ovarian, over 100 µM; in the test with MDA-N, over 100 µM. Moreover, the total growth inhibition concentration (TGI) with BT-549 breast is over 100 µM; in the test on MALME-3M melanoma, over 100 µM; in the test with HCC-2998 colon it was over 100 µM; in the test with HL-60(TB) leukemia, over 62.4 µM; in the test on HS 578T breast, over 100 µM; with UACC-62 melanoma, over 100 µM. In addition, the TGI was over 100 µM in the test on SN12C renal; over 100 µM in the test with HCT-116 colon; over 100 µM with SK-MEL-5 melanoma; over 100 µM in the test on COLO 205 colon; over 85.7 µM in the test with KM12 colon; over 87.6 µM in the test with OVCAR-3 ovarian. For the same molecule, the total growth inhibition concentration (TGI) with NCI-H460 lung and in the test on SW-620 colon was over 100 µM throughout.
On to `CC1C2CC(CC2(C)O)C1(C)C` (stereo not given), for which the total growth inhibition concentration (TGI) in the test with CCRF-CEM leukemia, in the test on UACC-257 melanoma, with IGROV1 ovarian, in the test on TK-10 renal, with OVCAR-4 ovarian and in the test with MDA-N was over 100 µM in each case. Besides, the total growth inhibition concentration (TGI) in the test with BT-549 breast, in the test with MALME-3M melanoma, with HCC-2998 colon, in the test on HL-60(TB) leukemia, in the test on HS 578T breast and in the test with UACC-62 melanoma was over 100 µM throughout. Also, the TGI in the test with SN12C renal, in the test with HCT-116 colon, in the test with SK-MEL-5 melanoma, in the test on COLO 205 colon, with KM12 colon and with OVCAR-3 ovarian was over 100 µM throughout. In addition, the TGI in the test with NCI-H460 lung and in the test with SW-620 colon was over 100 µM each time.
As to `CCC/C(Cl)=N/OC(=O)Nc1cc(C(F)(F)F)ccc1OC`, the TGI in the test with CCRF-CEM leukemia was over 20.7 µM; in the test with UACC-257 melanoma it was 30.9 µM; with IGROV1 ovarian, 30.7 µM; with TK-10 renal it was 32.5 µM; in the test with OVCAR-4 ovarian, 9.75 µM; in the test on MDA-N it was 25 µM. The concentration for total growth inhibition (TGI) is 28.8 µM with BT-549 breast; 7.34 µM in the test with MALME-3M melanoma; 30.6 µM in the test on HCC-2998 colon; over 100 µM in the test on HL-60(TB) leukemia; over 72.2 µM in the test on HS 578T breast; 28.8 µM in the test with UACC-62 melanoma. Further, the TGI with SN12C renal is 27.4 µM; in the test with HCT-116 colon it was 22.8 µM; in the test on SK-MEL-5 melanoma it was 19.9 µM; in the test with COLO 205 colon it was 3.45 µM; in the test with KM12 colon, 33.5 µM; in the test with OVCAR-3 ovarian it was 30.3 µM. Further, the TGI came to 36.5 µM in the test with NCI-H460 lung and 11.4 µM with SW-620 colon.
For the molecule `CCC1(CC)C(=O)N(C(=O)c2ccccc2)N(C(=O)c2ccc(Cl)cc2)C1=O`, the TGI in the test on CCRF-CEM leukemia was 51.3 µM; with UACC-257 melanoma it was over 75 µM; in the test with IGROV1 ovarian, over 75 µM; with TK-10 renal, over 75 µM; in the test on OVCAR-4 ovarian, over 75 µM; in the test on MDA-N, over 75 µM. The TGI in the test with BT-549 breast, in the test on MALME-3M melanoma, with HCC-2998 colon, with HL-60(TB) leukemia, with HS 578T breast and with UACC-62 melanoma was over 75 µM throughout. The total growth inhibition concentration (TGI) with SN12C renal, with HCT-116 colon, in the test with SK-MEL-5 melanoma, in the test on COLO 205 colon, in the test on KM12 colon and in the test on OVCAR-3 ovarian was over 75 µM in each case. For the same molecule, the concentration for total growth inhibition (TGI) with NCI-H460 lung and in the test with SW-620 colon was over 75 µM in each case.
Consider `CC(=O)OCC1OC(c2c(OC(C)=O)cc(C)c3c(=O)cc(/C(C(C)=O)=C(\C)O)oc23)C(OC(C)=O)C(OC(C)=O)C1OC(C)=O` (stereo not given), for which the TGI in the test on CCRF-CEM leukemia, with UACC-257 melanoma, in the test with IGROV1 ovarian, in the test on TK-10 renal, with OVCAR-4 ovarian and in the test on MDA-N was over 100 µM throughout. The TGI in the test with BT-549 breast, with MALME-3M melanoma, in the test on HCC-2998 colon, with HL-60(TB) leukemia, with HS 578T breast and in the test with UACC-62 melanoma was over 100 µM each time. For the same molecule, the TGI in the test on SN12C renal, with HCT-116 colon, with SK-MEL-5 melanoma, in the test on COLO 205 colon, in the test with KM12 colon and in the test on OVCAR-3 ovarian was over 100 µM in each case. Also, the TGI with NCI-H460 lung and with SW-620 colon was over 100 µM in each case.

(Values after PubChem BioAssay (NCI).)
